Experiments:
spleen lymphocytes [1] = assay: lymphocyte blastgenesis induced by Concanavalin A, 3H-thymidine uptake; type: cell-based, ddY mouse
Procedure: A spleen was taken out from a ddY mouse (Nippon SLC; male, 7 weeks old), finely minced and suspended in RPMI-1640 medium (Gibco) containing 10% fetal bovine serum (HyClone) to obtain a single cell suspension. The cell suspension was seeded into a plastic Petri dish, incubated at 37° C. for 2 hours in a carbon dioxide incubator. Adhesive cells adhered to the Petri dish were removed and non-adhesive cells were used as spleen lymphocytes. 200 μl of 2×10^6 cells/ml spleen lymphocytes suspension was seeded into each well of 96 well microtiter plate. Agarobiose at varying concentration was added to the wells other than the control well. Furthermore, to all the wells was added 5 μg of Con A (Nacalai Tesque) and the plate was incubated at 37° C. for one day in a carbon dioxide incubator. After incubation, 1 μCi of ^3H-thymidine was added to each well and incubation was continued for additional one day. Then, its uptake into cells was measured using a liquid scintillation counter.
FIG. 34 illustrates the relation between the agarobiose concentration and the ^3H-thymidine uptake in lymphocyte blastgenesis induced by Con A. The horizontal axis represents the agarobiose concentration and the vertical axis represents the ^3H-thymidine uptake (cpm). The open bar and the shaded bar represent the ^3H-thymidine uptake without stimulation and with stimulation by Con A, respectively. […]

spleen lymphocytes [2] = assay: mixed lymphocyte reaction, 3H-thymidine uptake; type: cell-based, BALB/c mouse and C57BL/6 mouse
Procedure: Spleens were taken out from a BALB/c mouse (Nippon SLC; male, 6 weeks old) and a C57BL/6 mouse (Nippon SLC; male, 6 weeks old) and spleen lymphocytes were obtained by the above-described method. Each cell suspension was adjusted to a concentration of 2×10^6 cell/ml, 100 μl portions from respective suspensions were mixed together and seeded in a 96 well microtiter plate. Agarobiose at varying concentration was added to the wells other than the control well, and the plate was incubated at 37° C. for 4 days in a carbon dioxide incubator. After incubation, 1 μCi of ^3H-thymidine was added to each well, and the plate was incubated for additional 1 day. Its uptake into cells was measured using a liquid scintillation counter.
That is, FIG. 35 illustrates the relation between the agarobiose concentration and the ^3H-thymidine uptake in the mixed lymphocyte reaction. The horizontal axis represents the agarobiose concentration and the vertical axis represents ^3H-thymidine uptake (cpm). The open bar and the shaded bar represent ^3H-thymidine uptake in case where cells from either one of the lines were used independently, and in case where mixed cells from both of the lines were used, respectively. […] Thus, the inhibitory activity against lymphocyte activation of agarobiose has been recognized.

RAW 264.7 cells = assay: NO production induced by LPS and IFN-γ after pre-incubation with sample; type: cell-based, mouse; conditions: 10 μl of 5,000 μM solution, pre-incubation 1, 2, 4 or 6 hours before stimulation
Procedure: (4) RAW 264.7 cells were suspended in the Dulbecco's modified Eagle's medium described in Example 20-(1) at a concentration of 3×10^5 cells/ml, and 500 μl portions thereof were placed in respective wells of a 48 well microtiter plate. The plate was incubated for 37° C. for 10 hours in the presence of 5 % carbon dioxide. To the wells was added 10 μl of aqueous 5,000 μM agarobiose solution and incubated for additional 1, 2, 4 or 6 hours. Then, the culture supernatant was removed from the well and to each well were added 500 μl of fresh Dulbecco's modified Eagle's medium and then 10 μl of aqueous 2.5 μg/ml LPS and aqueous 800 U/ml interferon-Υ (IFN-Υ, sold by Cosmobio, GZM-MG-IFN) solution. The plate was incubated for 1 hour. Then, the culture supernatant was removed from the well and to each well was added 500 μl of fresh Dulbecco's modified Eagle's medium and the plate was incubated for additional 16 hours. The concentration of NO2^− produced by oxidation of NO in the medium was measured according to the same manner as that described in Example 20-(1). As control groups, a group to which neither LPS nor IFN-Υ was added and a group to which agarobiose was not added were provided. All the measurements were carried out in duplicate.

[3] = test system: Mouse melanoma cell B16BL6; assay: inhibition of melanin production, absorbance at 400 nm; type: cell-based
Procedure: Mouse melanoma cell B16BL6 suspended in RPMI-1640 containing 10% FBS was placed in a 6 well plate at a concentration of 5×10^4 cells/2 ml medium/well and incubated at 37° C. On the 2nd day, 100 μl of agarobiose solution (2 mg/ml to 0.2 mg/ml) was added thereto, and on the 7th day, the medium was changed and, at the same time, 100 μl of agarobiose solution (2 mg/ml to 0.2 mg/ml) was added thereto. On the 8th day, the cells were collected, DNA, RNA and protein were decomposed, and then the absorbance at 400 nm was measured to examine an activity of inhibiting melanin production.
Namely, after removing the medium by suction, 0.3 ml of 0.25% trypsin dissolved in 20 mM EDTA solution was added to each well and the plate was incubated at 37° C. for 10 minutes. Then, 2 ml of the fresh medium was added to the well and the cells were suspended. The suspension was collected into a test tube. The medium was then removed by centrifugation and the cells were suspended in 2 ml of PBS and centrifuged again. After removing the supernatant, 30 μl of 50 mM sodium acetate buffer (pH 5.0) containing 5 mM manganese chloride and 1 μl of 70,000 U/ml DNase I (manufactured by Takara Shuzo) were added to the cells and thoroughly mixed. The mixture was incubated at 37° C. for 2 hours to decompose DNA. Then, 1 μl of 10 mg/ml ribonuclease A (manufactured by Sigma) was added to the mixture and the resultant mixture was incubated at 50° C. for 1 hour to decompose RNA. Finally, 100 mM Tris-hydrochloric acid buffer (pH 7.8) containing 100 μg/ml proteinase K (manufactured by Sigma), 0.1% Triton x and 10 mM EDTA was added thereto to make the total volume up to 200 μl for 2×10^6 cells, and the mixture was incubated at 37° C. for 16 hours and then the absorbance at 400 nm was measured.

SMILES: OC[C@H]1O[C@@H](O[C@H]2[C@H]3OC[C@@H]2OC(O)[C@H]3O)[C@H](O)[C@@H](O)[C@H]1O (mixture of isomers) [Agarobiose, agarobiose]
- inhibitory activity against lymphocyte blastgenesis induced by Con A (in words) (spleen lymphocytes [1]): dose-dependent inhibitory activity
- inhibition of mouse lymphocyte proliferation stimulated by mitogen (spleen lymphocytes [1]; Con A, 100 μg/ml): almost completely inhibits
- inhibitory activity against mixed lymphocyte reaction (in words) (spleen lymphocytes [2]): dose-dependent inhibitory activity
- inhibition of lymphocytes activation by stimulation with an alloantigen (spleen lymphocytes [2]; 10 μg/ml): almost completely inhibits
- inhibition of NO production induced by LPS and IFN-γ (in words) (RAW 264.7 cells): the longer the pre-incubation time was, the higher the inhibition
- Absorbance at 400 nm mean ([3]; agarobiose 10 μg/ml): 0.521
- Absorbance at 400 nm mean ([3]; agarobiose 50 μg/ml): 0.392
- Absorbance at 400 nm mean ([3]; agarobiose 100 μg/ml): 0.383
- activity of inhibiting melanin production (in words) ([3]; agarobiose at 50 and 100 μg/ml): recognized
